Results reported in patent US20040048356A1, “Use of a strain of lactobacillus reducing the risk factors involved in the metabolic syndrome” (priority 2000, published 2004).

Assays:
PPAR = test: Effect of propionic acid on PPAR gene expression in vitro (semiquantitative RT-PCR in HUVEC); assay type: cell-based; conditions: PPAR mRNA in human endothelial cells, percent in relation to GAPDH mRNA (100%)
Experimental: Human umbilical vein endothelial cells, HUVEC, were obtained from umbilical cords by collagenase digestion as described by Jaffe et al. (Biology of Endothelial Cells, Boston, Martinus Nijhoff Publishers, 1984, p. 1-13). In brief, veins of umbilical cords were perfused with PBS to remove blood cells, filled with 0.1% collagenase (type Ia) and left for 10 minutes at 37° C. Suspended HUvEC were supplemented with PBS, centrifuged and cultured at 37° C. in gelatine-coated 25 ml flasks and 6-well tissue culture plates filled with medium 199, under humidified 5% CO2 in room air. Propionic acid was added to the culture medium in the amounts of 0.1, 1.0, and 10.0 mmol/l, and the effect of the acid on the expression of PPAR was determined. Total RNA was extracted from the cells by the method of Chomczynski using TRIZOL (Gibco BRL). After isolation the integrity of the RNA samples was checked by gel electrophoresis in 1% agarose gel stained with ethidium bromide. The concentration of total RNA was calculated after spectrophotometric measurements at 260 nm wavelength. Each RNA sample (500 ng) was incubated with 1 U of DNAse I (Boehringer Mannheim, Germany) for 15 minutes at 37° C., and subsequently DNAse I was inactivated by heating at 75° C. for 3 minutes. Such DNAse-treated RNA (500 ng) was dissolved in 20 μl of a reaction mixture containing 2.5 mM of dATP, dTTP, dCTP, and dGTP (Progmega, USA), 20 U of RNAsin (Promega, USA), 100 pM of random hexamers (Boehringer Mannheim, Germany) and 20 U of MMLV Reverse Transcriptase (Boehringer Mannheim). Incubation was carried out at 37° C. for 60 minutes; the temperature of the reaction was then raised to 94° C. for 5 minutes to inactivate the enzyme and finally dropped to 4° C. […] The intensity of the bands was densitometrically measured with the gel analysis macro supplied with NIH Image. All PPAR signals were normalised to mRNA levels of the housekeeping gene GAPDH and expressed as a ratio. Data are expressed as percent in relation to GAPDH mRNA (100%).

[1] = clinical trial, Zapolska-Downar et al. 2000; cited from earlier work

Structure (SMILES) | Increase of mRNA, % (PPAR; propionic acid 0.1 mmol/l) [%] | Increase of mRNA, % (PPAR; propionic acid 1.0 mmol/l) [%] | Increase of mRNA, % (PPAR; propionic acid 10.0 mmol/l) [%] | HDL cholesterol levels [1]
CCC(=O)O [propionic acid] | 29.3 | 47.2 | 89.7 | –
CC(C)Cc1ccc(C(C)C(=O)O)cc1 (stereo not shown) [ibuprofen] | – | – | – | increased
